Measurements: US10500388B2 (priority 2005, dated 2019)
Like-named read-outs stand apart in the source and are kept apart here.

Key:
E coli = type: cell-based, Escherichia coli
From the text: A suitable method is the serial plate transfer test (SPTT) (Bayston R. Grove N, Siegel J, Lawellin D, Barsham S. Prevention of hydrocephalus shunt catheter colonisation in vitro by impregnation with antimicrobials. J Neurol Neurosurg Psychiatr 1989, 52: 605-689) which allows for a portion of an antimicrobial material, typically a catheter segment of approximately 5 mm length, to be placed on the surface of an agar plate seeded with susceptible index bacteria in such a way that the cut ends of the test catheter are not in contact with the eluting surface, by means of a well or other arrangement.
Wound guards (e.g. for protection of catheter or external fixation pin exit sites) in the form of discs of silicone elastomer of 2.5 cm diameter and 3.5 mm thickness were impregnated with either rifampin+clindamycin (A), rifampin+clindamycin+triclosan (B) or triclosan alone (C). […] After overnight incubation, inhibition zones were measured and the discs were transferred to a further seeded plate, and this process repeated until no zones were seen. Any bacterial colonies growing inside the inhibition zones or under the discs were tested for minimal inhibitory concentration (MIC) to triclosan and their identities with the original inoculum determined by pulse field gel electrophoresis. […]

S. aureus = experiment: MIC of triclosan for inoculum and for colonies growing inside zones or under discs; type: cell-based; conditions: Staphylococcus aureus
Experimental: (§1) Wound guards (e.g. for protection of catheter or external fixation pin exit sites) in the form of discs of silicone elastomer of 2.5 cm diameter and 3.5 mm thickness were impregnated with either rifampin+clindamycin (A), rifampin+clindamycin+triclosan (B) or triclosan alone (C). The discs were then sterilised by autoclaving, and placed on agar plates seeded with the gram-positive bacteria Staphylococcus aureus. After overnight incubation, inhibition zones were measured and the discs were transferred to a further seeded plate, and this process repeated until no zones were seen. Any bacterial colonies growing inside the inhibition zones or under the discs were tested for minimal inhibitory concentration (MIC) to triclosan and their identities with the original inoculum determined by pulse field gel electrophoresis.

E. coli = experiment: as above; type: cell-based; conditions: Escherichia coli
Experimental: as §1, with “electrophoresis. The results were as follows:” for “electrophoresis.”
The simulation was repeated using plates seeded with the gram-negative bacterium E coli.

[1] = read-out: MIC of triclosan for resistant mutants

In the case of `CO[C@H]1/C=C/O[C@@]2(C)Oc3c(C)c(O)c4c(O)c(c(/C=N/N5CCN(C)CC5)c(O)c4c3C2=O)NC(=O)/C(C)=C\C=C\[C@H](C)[C@H](O)[C@@H](C)[C@@H](O)[C@@H](C)[C@H](OC(C)=O)[C@@H]1C` [Rifampin, 2-(4-methyl-1-piperazinyl-iminomethyl)-rifamycin SV], the “Activity against E. coli” value (E coli) is reported as “no activity”.
`Oc1cc(Cl)ccc1Oc1ccc(Cl)cc1Cl` [Triclosan] was tested, and the MIC (S. aureus; [1]) was 125 µg/mL, the MIC (S. aureus; S. aureus original inoculum, read-out: MIC of triclosan for inoculum) was 3.75 µg/mL and the MIC (E. coli; read-out: MIC of triclosan for inoculum) was 16 µg/mL. For the same molecule, the MIC (E. coli; [1]) was 250 µg/mL.
For `CCC[C@@H]1C[C@@H](C(=O)N[C@@H]([C@H]2O[C@H](SC)[C@H](O)[C@@H](O)[C@H]2O)[C@H](C)Cl)N(C)C1` [clindamycin], the “Activity against E. coli” value (E coli) was “no activity”.
